Data as given in patent EP4050002A1, “ANTI-PROLIFERATIVE AGENTS” (First Health Pharmaceuticals B.V., priority 2021, dated 2022).

Columns and labels:
[1] = Kinetic solubility (turbidimetry); format: physicochemical; details: for Absorbance at 620nm: PBS pH 7.4, 37°C, 2 h
Method: Kinetic solubility was assessed in phosphate buffered saline at pH 7.4 according to the turbidimetry method. Turbidity (precipitation) was measured by absorbance at 620 nm following incubation at 37°C for 2 h. Stock solution of compounds in DMSO were prepared to produce the desired final range of concentrations, then these were added to the buffer to obtain the final test compound concentrations (1 µM, 3 µM, 10 µM, 30 µM, 100 µM), with a final DMSO concentration 1%). Solubility was estimated from the concentration of tested compound that produced a significant increase in absorbance (≥ 0.003 OD at 620 nm) above vehicle control (1% DMSO in water). Miconazole, Reserpine and Propranolol were used as controls.

MCF10a = assay: Cytotoxicity in non-tumor cells, cell count method; format: cell-based, human
Method: The non-specific toxicity of the compounds is evaluated in non-tumor immortalized cells with cell count and / or MTS methods, and in primary Peripheral Blood Mononuclear Cells (PBMC) with the ATP-based method.
Cells were seeded at 3 to 5 x 10^4 cells/well density depending on cell lines and maintained at 37°C in 5% CO2. After 24 hours cells were treated with ascending concentrations of the investigational compounds and the reference (5-fluoro-Uracyl) in a range from 0 to 100 µM. Compounds were dissolved in DMSO which final concentration in each well was 0.5% v:v. After 72 h of incubation with compounds, the cells were detached with trypsin and re-suspended in 1 ml of complete medium; the cell number was evaluated using a Z2 Coulter Counter ("cell count method") (Attallah and Johnson, A simple highly sensitive methods for the determination of cell viability using an electronic particle analyzer, Coulter counter J. Immunol. Methods. 1981, 41, 155; Leonardi et al., Activated kinase screening identifies the IKBKE oncogene as a positive regulator of autophagy. Autophagy, 2019, 15, 312). Alternatively, after the 72 hours of incubation with compounds, the MTS solution (CellTiter 96® AQueous One Solution Cell Proliferation Assay) is added to each well and absorbance at 490 nm wavelength is read after 2 hours of incubation ("MTS method"). […]

## CCCCc1cn(-c2ccc(-c3nnc(-c4ccccc4C(F)(F)F)o3)cc2)nn1 [Compound 5]
[1]; 37 °C, aqueous buffer, kinetic from dmso stock, kinetic solubility, PBS pH 7.4, read-out: solubility
  solubility at 2 h: > 100 µM
[1]; conc. 1 µM
  Absorbance at 620nm: 0.037
[1]; conc. 3 µM
  Absorbance at 620nm: 0.037
[1]; conc. 10 µM
  Absorbance at 620nm: 0.037
[1]; conc. 30 µM
  Absorbance at 620nm: 0.037
[1]; conc. 100 µM
  Absorbance at 620nm: 0.038
MCF10a; Homo sapiens, MCF-10A, MCF10a, 72 hours of incubation, cell count method
  IC50: 440 µM
MCF10a; non tumor cell lines (Table 17)
  toxicity: above 100 µM
